Test system: not listed separately
Test: Selectivity index, ratio of IC50 for rat L6 cells to IC50 for Trypanosoma brucei Lister 427
Assay type: toxicity, cell-based
Settings: L6 cells (versus Trypanosoma brucei Lister 427), read-out: Ratio IC50

Structure (SMILES) | selectivity ratio
C1=NCC(C23CC4CC(CC(C5CCCC5)(C4)C2)C3)N1 (stereo not drawn) | 2.4
CN1C=NCC1C12CC3CC(CC(C4CCCC4)(C3)C1)C2 (stereo not drawn) | 3.9
CC1=NCC(C23CC4CC(CC(C5CCCC5)(C4)C2)C3)N1 (stereo not drawn) | 1.6
CC1=NCC(C23CC4CC(CC(C5CCCC5)(C4)C2)C3)N1C (stereo not drawn) | 1.3
NC1=NCC(C23CC4CC(CC(C5CCCC5)(C4)C2)C3)N1 (stereo not drawn) | 7.9
CN1C(N)=NCC1C12CC3CC(CC(C4CCCC4)(C3)C1)C2 (stereo not drawn) | 7.1
C1=NCC(C23CC4CC(CC(C5CCCCC5)(C4)C2)C3)N1 (stereo not drawn) | 2.5
NC1=NCC(C23CC4CC(CC(C5CCCCC5)(C4)C2)C3)N1 (stereo not drawn) | 10.2
CN1C(N)=NCC1C12CC3CC(CC(C4CCCCC4)(C3)C1)C2 (stereo not drawn) | 4.3
C1=NCC(C23CC4CC(CC(C5CCCC5)(C4)C2)C3)N1C1CCCCC1 (stereo not drawn) | 1.9
NC1=NCC(C23CC4CC(CC(C5CCCC5)(C4)C2)C3)N1C1CCCCC1 (stereo not drawn) | 5

Test system: L6
Test: Cytotoxicity against rat L6 cells after 6 days by Alamar Blue fluorescence assay
Assay type: cell-based
Settings: L6, 144 h

Structure (SMILES) | IC50 [µM]
C1=NCC(C23CC4CC(CC(C5CCCC5)(C4)C2)C3)N1 (stereo not drawn) | 3.7
CN1C=NCC1C12CC3CC(CC(C4CCCC4)(C3)C1)C2 (stereo not drawn) | 5.77
CC1=NCC(C23CC4CC(CC(C5CCCC5)(C4)C2)C3)N1 (stereo not drawn) | 3.56
CC1=NCC(C23CC4CC(CC(C5CCCC5)(C4)C2)C3)N1C (stereo not drawn) | 3.77
NC1=NCC(C23CC4CC(CC(C5CCCC5)(C4)C2)C3)N1 (stereo not drawn) | 17.2
CN1C(N)=NCC1C12CC3CC(CC(C4CCCC4)(C3)C1)C2 (stereo not drawn) | 11.7
C1=NCC(C23CC4CC(CC(C5CCCCC5)(C4)C2)C3)N1 (stereo not drawn) | 7.22
NC1=NCC(C23CC4CC(CC(C5CCCCC5)(C4)C2)C3)N1 (stereo not drawn) | 19
CN1C(N)=NCC1C12CC3CC(CC(C4CCCCC4)(C3)C1)C2 (stereo not drawn) | 7.39
C1=NCC(C23CC4CC(CC(C5CCCC5)(C4)C2)C3)N1C1CCCCC1 (stereo not drawn) | 3.46
NC1=NCC(C23CC4CC(CC(C5CCCC5)(C4)C2)C3)N1C1CCCCC1 (stereo not drawn) | 3.22

Test system: Trypanosoma brucei
Test: Antitrypanosomal activity against Trypanosoma brucei Lister 427 after 2 days by Alamar Blue fluorescence assay
Assay type: functional, organism-based
Settings: Lister 427, 48 h

Structure (SMILES) | IC50 [µM] | IC90 [µM]
CC1=NCC(C23CC4CC(CC(C5CCCC5)(C4)C2)C3)N1C (stereo not drawn) | 2.97 | 4.51
C1=NCC(C23CC4CC(CC(c5ccccc5)(C4)C2)C3)N1 (stereo not drawn) | 7.09 | 9.02
CN1C=NCC1C12CC3CC(CC(c4ccccc4)(C3)C1)C2 (stereo not drawn) | 7.91 | 13.1
CC1=NCC(C23CC4CC(CC(c5ccccc5)(C4)C2)C3)N1 (stereo not drawn) | 4.88 | 8.11
CC1=NCC(C23CC4CC(CC(c5ccccc5)(C4)C2)C3)N1C (stereo not drawn) | 7.16 | 10.3
NC1=NCC(C23CC4CC(CC(c5ccccc5)(C4)C2)C3)N1 (stereo not drawn) | 7.39 | 11.8
CN1C(N)=NCC1C12CC3CC(CC(c4ccccc4)(C3)C1)C2 (stereo not drawn) | 4.53 | 5.58
NC1=NCC(C23CC4CC(CC(C5CCCC5)(C4)C2)C3)N1C1CCCCC1 (stereo not drawn) | 0.65 | 0.84
C1=NCC(C23CC4CC(CC(C5CCCC5)(C4)C2)C3)N1c1ccccc1 (stereo not drawn) | 16.4 | 24.2
NC1=NCC(C23CC4CC(CC(C5CCCC5)(C4)C2)C3)N1c1ccccc1 (stereo not drawn) | 11.1 | 15.5
NC12CC3CC(CC(C3)C1)C2 [AMANTADINE] | > 132 | > 132
CC(N)C12CC3CC(CC(C3)C1)C2 (stereo not drawn) [RIMANTADINE] |  | 14

Other lines, results leading:

IC50 [µM] | IC90 [µM] | Structure (SMILES)
1.57 | 2.42 | C1=NCC(C23CC4CC(CC(C5CCCC5)(C4)C2)C3)N1 (stereo not drawn)
1.5 | 1.83 | CN1C=NCC1C12CC3CC(CC(C4CCCC4)(C3)C1)C2 (stereo not drawn)
2.16 | 2.77 | CC1=NCC(C23CC4CC(CC(C5CCCC5)(C4)C2)C3)N1 (stereo not drawn)
2.17 | 2.63 | NC1=NCC(C23CC4CC(CC(C5CCCC5)(C4)C2)C3)N1 (stereo not drawn)
1.65 | 2.23 | CN1C(N)=NCC1C12CC3CC(CC(C4CCCC4)(C3)C1)C2 (stereo not drawn)
2.89 | 4.2 | C1=NCC(C23CC4CC(CC(C5CCCCC5)(C4)C2)C3)N1 (stereo not drawn)
1.86 | 2.52 | NC1=NCC(C23CC4CC(CC(C5CCCCC5)(C4)C2)C3)N1 (stereo not drawn)
1.72 | 2.35 | CN1C(N)=NCC1C12CC3CC(CC(C4CCCCC4)(C3)C1)C2 (stereo not drawn)
1.82 | 2.41 | C1=NCC(C23CC4CC(CC(C5CCCC5)(C4)C2)C3)N1C1CCCCC1 (stereo not drawn)
